Data on ten compounds can be found in paper PMC9841532, “Exploring the Effect of Halogenation in a Series of Potent and Selective A2B Adenosine Receptor Antagonists” (Journal of Medicinal Chemistry, 2022).

Read-outs that look alike come from different tables or passages of the source. Where only a bound is given, the exact number is not on record here.

One assay has as its target T1, hA1AR (Homo sapiens, UniProt P30542).
T1 sequence (P30542 1-326): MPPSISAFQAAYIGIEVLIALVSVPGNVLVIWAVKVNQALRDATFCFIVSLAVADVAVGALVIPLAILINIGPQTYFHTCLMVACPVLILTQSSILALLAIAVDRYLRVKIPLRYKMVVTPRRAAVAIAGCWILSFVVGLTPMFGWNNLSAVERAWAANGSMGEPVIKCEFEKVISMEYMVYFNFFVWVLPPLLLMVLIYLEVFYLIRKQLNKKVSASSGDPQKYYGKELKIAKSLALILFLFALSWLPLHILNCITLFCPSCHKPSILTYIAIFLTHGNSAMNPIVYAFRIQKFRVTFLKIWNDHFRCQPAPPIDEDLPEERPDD
In words: Radioligand binding competition, [3H]DPCPX, membranes from CHO-A1 cells. As to conditions: for % at 1 μM hA1 (percentage displacement of specific binding): [3H]DPCPX, human CHO cells, n = 2. The procedure:
(§1) All ligands reported in Tables 1–5 were obtained and tested as racemic mixtures. The whole set was evaluated in silico with a combination of a Rdkit[37] PAINS filter and Instant JChem from Chemaxon (https://www.chemaxon.com), to rule out the possibility that these ligands can be promiscuous pan-assay interference compounds (PAINS) and to assess their bioavailability, respectively. […] The stereoisomers of selected compounds were obtained by chiral resolution and tested at the four human AR subtypes in their enantiopure forms (Table 6).
(§2) A brief description is given below. […] Non-specific binding was determined in the presence of 10 μM R-PIA. The reaction mixture was incubated at 25 °C for 60 min. […] The reaction mixture was incubated at 25 °C for 30 min. […] The reaction mixture was incubated at 25 °C for 30 min. […] Non-specific binding was determined in the presence of 100 μM R-PIA. […] After the incubation time, membranes were washed and filtered and radioactivity was detected in a MicroBeta TriLux reader (PerkinElmer).

The target in another assay is T2, hA2BAR (Homo sapiens, UniProt P29275).
T2 construct: host or cells: HEK-293 (HEK-293-A2B) cell membranes
T2 sequence (P29275 1-332): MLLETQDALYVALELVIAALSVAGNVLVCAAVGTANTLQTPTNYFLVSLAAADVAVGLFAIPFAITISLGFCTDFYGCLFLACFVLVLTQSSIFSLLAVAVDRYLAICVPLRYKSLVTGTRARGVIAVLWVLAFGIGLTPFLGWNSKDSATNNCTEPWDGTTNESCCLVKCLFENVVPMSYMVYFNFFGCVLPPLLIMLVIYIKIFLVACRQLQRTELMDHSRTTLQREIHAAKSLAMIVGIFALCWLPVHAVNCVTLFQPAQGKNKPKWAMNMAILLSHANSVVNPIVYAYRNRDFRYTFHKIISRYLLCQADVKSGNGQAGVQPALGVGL
The assay is described as follows: Radioligand binding competition, [3H]DPCPX, membranes from HEK-293-A2B cells. Also on record: Exp. dG: unit not given here. As to conditions: for % at 1 μM hA2B (percentage displacement of specific binding): [3H]DPCPX, human HEK-293 cells, n = 2; for Ki: read-out: Ki hA2B; for Exp. dG: experimental binding free energy, Supplementary Table S3, unit not given (errors in kcal/mol). The procedure: as §1, §2

For the next assay, the target named is T3, hA2AAR (Homo sapiens, UniProt P29274).
T3 construct: expressed in transfected cells; host or cells: HeLa (HeLa-A2A) cell membranes
T3 sequence (P29274 whole entry): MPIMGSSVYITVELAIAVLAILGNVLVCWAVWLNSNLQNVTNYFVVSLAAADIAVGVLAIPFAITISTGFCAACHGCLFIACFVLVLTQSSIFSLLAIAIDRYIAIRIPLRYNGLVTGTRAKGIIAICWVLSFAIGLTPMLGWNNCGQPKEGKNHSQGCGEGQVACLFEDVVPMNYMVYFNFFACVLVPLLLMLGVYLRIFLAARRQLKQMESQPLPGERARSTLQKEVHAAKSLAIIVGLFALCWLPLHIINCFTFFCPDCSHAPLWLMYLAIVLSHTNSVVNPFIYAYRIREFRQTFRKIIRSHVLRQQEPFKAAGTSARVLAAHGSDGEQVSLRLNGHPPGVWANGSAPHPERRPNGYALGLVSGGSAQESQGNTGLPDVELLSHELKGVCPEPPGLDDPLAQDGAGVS
The assay is described as follows: Radioligand binding competition, [3H]ZM241385, membranes from HeLa-A2A cells. As to conditions: 1 μM, [3H]ZM241385, human HeLa cells, n = 2. The protocol: as §1, §2

For another assay, the target named is T4, hA3AR (Homo sapiens, UniProt P0DMS8).
T4 construct: expressed in transfected cells; host or cells: HeLa (HeLa-A3) cell membranes
T4 sequence (P0DMS8 1-318): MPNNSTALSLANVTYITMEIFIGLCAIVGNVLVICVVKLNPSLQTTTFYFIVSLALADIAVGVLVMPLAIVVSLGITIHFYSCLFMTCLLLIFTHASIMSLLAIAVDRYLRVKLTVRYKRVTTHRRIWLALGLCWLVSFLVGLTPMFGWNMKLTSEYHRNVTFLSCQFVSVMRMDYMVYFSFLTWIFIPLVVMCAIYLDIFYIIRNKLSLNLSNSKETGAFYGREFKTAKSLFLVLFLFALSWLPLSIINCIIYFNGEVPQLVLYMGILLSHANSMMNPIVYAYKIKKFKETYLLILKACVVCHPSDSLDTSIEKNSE
The assay is described as follows: Radioligand binding competition, [3H]NECA, membranes from HeLa-A3 cells. As to conditions: 1 μM, [3H]NECA, human HeLa cells, n = 2. The protocol:
as §1, §2

Where [1] appears, read: displacement of specific [3H]DPCPX binding in human HEK-293 cells, n = 3.

On to `CCOC(=O)C1=C(C)Nc2nc3cc(Cl)c(Cl)cc3n2C1c1ccsc1` (centres unmarked) [14o], for which, at hA1AR, the “% at 1 μM hA1 (percentage displacement of specific binding)” value was determined as 5%. In addition, the “% at 1 μM hA2B (percentage displacement of specific binding)” value at hA2BAR came to 9%. At hA2AAR, the “% at 1 μM hA2A (percentage displacement of specific binding)” value is on record as 1%. Further, at hA3AR, the “% at 1 μM hA3 (percentage displacement of specific binding)” value is listed as 1%.

`CCOC(=O)C1=C(C)Nc2nc3cc(Br)c(Br)cc3n2C1c1ccoc1` (centres unmarked) [14s]: the “% at 1 μM hA1 (percentage displacement of specific binding)” value at hA1AR was found to be 2%. The “% at 1 μM hA2B (percentage displacement of specific binding)” value on hA2BAR is 7%. Moreover, the “% at 1 μM hA2A (percentage displacement of specific binding)” value at hA2AAR amounted to 2%. Moreover, at hA3AR, the “% at 1 μM hA3 (percentage displacement of specific binding)” value was 10%.

What is called Ki is a dissociation constant, usually derived from enzyme kinetics or from competition with a known ligand. As to `CCOC(=O)C1=C(C)Nc2nc3ccc(Cl)cc3n2C1c1cocn1` (centres unmarked) [17c], the Ki turned out to be 227 nM on hA1AR (displacement of specific [3H]DPCPX binding in human CHO cells, n = 3, read-out: Ki hA1) and 25.6 ± 1.2 nM on hA2BAR (setting [1]). Besides, the “Exp. dG” value on hA2BAR is reported as -10.35. Further, the “% at 1 μM hA2A (percentage displacement of specific binding)” value at hA2AAR was 14%. The “% at 1 μM hA3 (percentage displacement of specific binding)” value on hA3AR was 11%.

Turning to `CCOC(=O)C1=C(C)Nc2nc3cc(F)ccc3n2C1c1ccoc1` (centres unmarked) [16c], at hA1AR, the “% at 1 μM hA1 (percentage displacement of specific binding)” value came to 29%. The Ki at hA2BAR (setting [1]) worked out at 13.7 ± 0.9 nM. For the same compound, the “Exp. dG” value on hA2BAR is -10.72. Further, the “% at 1 μM hA2A (percentage displacement of specific binding)” value on hA2AAR is 21%. In addition, the “% at 1 μM hA3 (percentage displacement of specific binding)” value at hA3AR amounted to 2%.

Take `CC1=C(C(=O)OC(C)C)[C@H](c2ccoc2)n2c(nc3cc(Cl)ccc32)N1` [(S)-16l]: at hA1AR, the “% at 1 μM hA1 (percentage displacement of specific binding)” value worked out at 24%. In addition, the “% at 1 μM hA2B (percentage displacement of specific binding)” value on hA2BAR was found to be 53%. Moreover, at hA2AAR, the “% at 1 μM hA2A (percentage displacement of specific binding)” value is 25%. Also, the “% at 1 μM hA3 (percentage displacement of specific binding)” value on hA3AR was 19%.

Take `CC1=C(C(=O)OC(C)C)[C@H](c2ccco2)n2c(nc3cc(F)ccc32)N1` [(R)-16b]: the “% at 1 μM hA1 (percentage displacement of specific binding)” value on hA1AR was 15%. Besides, the “% at 1 μM hA2B (percentage displacement of specific binding)” value on hA2BAR stood at 41%. Besides, the “% at 1 μM hA2A (percentage displacement of specific binding)” value at hA2AAR amounted to 5%. Further, the “% at 1 μM hA3 (percentage displacement of specific binding)” value on hA3AR was determined as 19%.

`CCOC(=O)C1=C(C)Nc2nc3cc(Cl)ccc3n2C1c1ccoc1` (centres unmarked) [16k]: the “% at 1 μM hA1 (percentage displacement of specific binding)” value on hA1AR is 31%. Moreover, the Ki at hA2BAR (setting [1]) is 7.21 ± 0.4 nM; on hA2BAR, less than 10 nM. Moreover, the “Exp. dG” value at hA2BAR is -11.1. At hA2AAR, the “% at 1 μM hA2A (percentage displacement of specific binding)” value was 43%. Also, the “% at 1 μM hA3 (percentage displacement of specific binding)” value at hA3AR worked out at 4%.

Turning to `CC1=C(C(=O)OC(C)C)C(c2cccs2)n2c(nc3cc(Br)c(Br)cc32)N1` (centres unmarked) [14v], the “% at 1 μM hA1 (percentage displacement of specific binding)” value at hA1AR is on record as 1%. Besides, the “% at 1 μM hA2B (percentage displacement of specific binding)” value at hA2BAR is reported as 9%. Besides, on hA2AAR, the “% at 1 μM hA2A (percentage displacement of specific binding)” value was 1%. The “% at 1 μM hA3 (percentage displacement of specific binding)” value on hA3AR is 3%.

`CC1=C(C(=O)OC(C)C)C(c2ccsc2)n2c(nc3ccc(Br)cc32)N1` (centres unmarked) [15x]: on hA1AR, the “% at 1 μM hA1 (percentage displacement of specific binding)” value is listed as 1%. In addition, the “% at 1 μM hA2B (percentage displacement of specific binding)” value on hA2BAR is given as 10%. Besides, the “% at 1 μM hA2A (percentage displacement of specific binding)” value on hA2AAR was 1%. Moreover, the “% at 1 μM hA3 (percentage displacement of specific binding)” value at hA3AR is 1%.

For the compound `CC1=C(C(=O)OC(C)C)[C@H](c2ccco2)n2c(nc3cc(Cl)ccc32)N1` [(R)-16j], the “% at 1 μM hA1 (percentage displacement of specific binding)” value at hA1AR stood at 7%. The “% at 1 μM hA2B (percentage displacement of specific binding)” value at hA2BAR is 51%. Further, the “% at 1 μM hA2A (percentage displacement of specific binding)” value at hA2AAR is 37%. The “% at 1 μM hA3 (percentage displacement of specific binding)” value at hA3AR was 5%.
